Key:
SK-MEL-24 = assay: cells; format: functional, cell-based; details: Homo sapiens;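 further: growth inhibition read out by a cell viability assay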
Description: SANGER: Inhibition of human SK-MEL-24 cell growth in a cell viability assay.

MIA PaCa-2 = assay: cells; format: functional, cell-based; details: Homo sapiens;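 further: growth inhibition of MIA PaCa-2 cells, read out with a cell viability assay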
Description: SANGER: Inhibition of human MIA-PaCa-2 cell growth in a cell viability assay.

COLO 205 = assay: cells; format: functional, cell-based; details: Homo sapiens
Description: SANGER: Inhibition of human COLO-205 cell growth in a cell viability assay.

IPC-298 = assay: SANGER: Inhibition of human IPC-298 cell growth in a cell viability assay.; format: functional, cell-based
EW-24 = assay: cells; format: functional, cell-based, Homo sapiens; details: Homo sapiens, EW-24;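 further: human EW-24 cancer cell line, growth inhibition read out via a cell viability assay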
Description: SANGER: Inhibition of human EW-24 cell growth in a cell viability assay.

RT-4 = assay: SANGER: Inhibition of human RT4 cell growth in a cell viability assay.; format: functional, cell-based
BHT-101 = assay: cells; format: functional, cell-based; details: Homo sapiens
Description: SANGER: Inhibition of human BHT-101 cell growth in a cell viability assay.

KMOE-2 = assay: cells; format: functional, cell-based, Homo sapiens; details: Homo sapiens, KMOE-2;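 further: growth inhibition of human KMOE-2 cells, read out with a cell viability assay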
Description: SANGER: Inhibition of human KMOE-2 cell growth in a cell viability assay.

EC-GI-10 = assay: cells; format: functional, cell-based, Homo sapiens; details: Homo sapiens, EC-GI-10
Description: SANGER: Inhibition of human EC-GI-10 cell growth in a cell viability assay.

EVSA-T = assay: cells; format: functional, cell-based, Homo sapiens; details: Homo sapiens, EVSA-T;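 further: growth inhibition of EVSA-T cells, read out with a cell viability assay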
Description: SANGER: Inhibition of human EVSA-T cell growth in a cell viability assay.

HuO9 = assay: cells; format: functional, cell-based; details: Homo sapiens;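 further: growth inhibition of HuO9 cells, read out with a cell viability assay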
Description: SANGER: Inhibition of human HuO9 cell growth in a cell viability assay.

Calu-3 = assay: cells; format: functional, cell-based; details: Homo sapiens;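 further: growth inhibition of human Calu-3 cells, determined with a cell viability assay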
Description: SANGER: Inhibition of human Calu-3 cell growth in a cell viability assay.

DMS-53 = assay: cells; format: functional, cell-based; details: Homo sapiens;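 further: cell viability assay measuring growth inhibition of human DMS-53 cells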
Description: SANGER: Inhibition of human DMS-53 cell growth in a cell viability assay.

MDA-MB-175-VII = assay: cells; format: functional, cell-based; details: Homo sapiens
SK-MEL-28 = assay: cells; format: functional, cell-based; details: Homo sapiens;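 further: growth inhibition of human SK-MEL-28 cells, read out with a cell viability assay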
Description: SANGER: Inhibition of human SK-MEL-28 cell growth in a cell viability assay.

TCC-SUP = assay: cells; format: functional, cell-based; details: Homo sapiens;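 further: growth inhibition of TCC-SUP cells, read out with a cell viability assay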
Description: SANGER: Inhibition of human TCCSUP cell growth in a cell viability assay.

HLE = assay: cells; format: functional, cell-based; details: Homo sapiens;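 further: growth inhibition of human HLE cells, read out by a cell viability assay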
Description: SANGER: Inhibition of human HLE cell growth in a cell viability assay.

DK-MG = assay: cells; format: functional, cell-based; details: Homo sapiens;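 further: growth inhibition of DK-MG cells, read out with a cell viability assay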
Description: SANGER: Inhibition of human DK-MG cell growth in a cell viability assay.

23132-87 = assay: cells; format: functional, cell-based; details: Homo sapiens
Description: SANGER: Inhibition of human 23132-87 cell growth in a cell viability assay.

786-0 = assay: cells; format: functional, cell-based; details: Homo sapiens
Description: SANGER: Inhibition of human 786-0 cell growth in a cell viability assay.

KU-19-19 = assay: cells; format: functional, cell-based; details: Homo sapiens
Description: SANGER: Inhibition of human KU-19-19 cell growth in a cell viability assay.

FTC-133 = assay: cells; format: functional, cell-based; details: Homo sapiens
NCI-H345 = assay: cells; format: functional, cell-based, Homo sapiens; details: Homo sapiens, NCI-H345;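 further: growth inhibition of NCI-H345 cells measured with a cell viability assay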
Description: SANGER: Inhibition of human NCI-H345 cell growth in a cell viability assay.

SW48 = assay: cells; format: functional, cell-based; details: Homo sapiens;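 further: growth inhibition of SW48 cells, read out with a cell viability assay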
Description: SANGER: Inhibition of human SW48 cell growth in a cell viability assay.

HCT-15 = assay: cells; format: functional, cell-based; details: Homo sapiens;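 further: cell viability readout, IC50 reflecting suppression of HCT-15 cell growth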
Description: SANGER: Inhibition of human HCT-15 cell growth in a cell viability assay.

Calu-1 = assay: SANGER: Inhibition of human Calu-1 cell growth in a cell viability assay.; format: functional, cell-based
HSC-3 = assay: cells; format: functional, cell-based; details: Homo sapiens
Description: SANGER: Inhibition of human HSC-3 cell growth in a cell viability assay.

C-4-II = assay: SANGER: Inhibition of human C-4-II cell growth in a cell viability assay.; format: functional, cell-based
CAL-27 = assay: cells; format: functional, cell-based; details: Homo sapiens;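 further: Viability-based readout, IC50 reflecting inhibition of CAL-27 cell growth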
Description: SANGER: Inhibition of human CAL-27 cell growth in a cell viability assay.

UO-31 = assay: cells; format: functional, cell-based; details: Homo sapiens
Description: SANGER: Inhibition of human U031 cell growth in a cell viability assay.

T84 = assay: cells; format: functional, cell-based; details: Homo sapiens;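 further: growth inhibition measured with a cell viability readout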
Description: SANGER: Inhibition of human T84 cell growth in a cell viability assay.

COR-L23 = assay: cells; format: functional, cell-based; details: Homo sapiens;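 further: cell viability assay measuring how strongly compounds suppress growth of COR-L23 cells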
Description: SANGER: Inhibition of human COR-L23 cell growth in a cell viability assay.

DV-90 = assay: cells; format: functional, cell-based; details: Homo sapiens;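 further: Read-out is a viability assay, with IC50 reflecting the drop in DV-90 cell growth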
Description: SANGER: Inhibition of human DV-90 cell growth in a cell viability assay.

MeWo = assay: cells; format: functional, cell-based; details: Homo sapiens;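 further: growth inhibition of MeWo cells, determined by a cell viability readout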
Description: SANGER: Inhibition of human Mewo cell growth in a cell viability assay.

NCI-H838 = assay: cells; format: functional, cell-based; details: Homo sapiens;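 further: growth inhibition of human NCI-H838 cells, read out by a cell viability assay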
Description: SANGER: Inhibition of human NCI-H838 cell growth in a cell viability assay.

NCI-H1734 = assay: cells; format: functional, cell-based; details: Homo sapiens;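 further: growth inhibition of human NCI-H1734 cells, read out with a cell viability assay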
Description: SANGER: Inhibition of human NCI-H1734 cell growth in a cell viability assay.

TE-15 = assay: cells; format: functional, cell-based, Homo sapiens; details: Homo sapiens, TE-15;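 further: cell viability readout of growth inhibition in TE-15 cells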
Description: SANGER: Inhibition of human TE-15 cell growth in a cell viability assay.

CAL-39 = assay: cells; format: functional, cell-based; details: Homo sapiens;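 further: cell viability assay measuring growth inhibition of CAL-39 cells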
Description: SANGER: Inhibition of human CAL-39 cell growth in a cell viability assay.

EB2 = assay: cells; format: functional, cell-based, Homo sapiens; details: Homo sapiens, EB2;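 further: growth inhibition of EB2 cells, read out with a cell viability assay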
Description: SANGER: Inhibition of human EB2 cell growth in a cell viability assay.

MG-63 = assay: cells; format: functional, cell-based; details: Homo sapiens;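 further: growth inhibition of human MG-63 cells, read out with a cell viability assay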
Description: SANGER: Inhibition of human MG-63 cell growth in a cell viability assay.

BC-3 = assay: cells; format: functional, cell-based, Homo sapiens; details: Homo sapiens, BC-3;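 further: cell viability assay measuring growth inhibition of human BC-3 cells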
Description: SANGER: Inhibition of human BC-3 cell growth in a cell viability assay.

MDA-MB-468 = assay: cells; format: functional, cell-based; details: Homo sapiens
Description: SANGER: Inhibition of human MDA-MB-468 cell growth in a cell viability assay.

HCC38 = assay: cells; format: functional, cell-based; details: Homo sapiens;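 further: cell viability assay on the human HCC38 cell line, with IC50 marking the concentration that inhibits cell growth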
Description: SANGER: Inhibition of human HCC38 cell growth in a cell viability assay.

HT55 = assay: cells; format: functional, cell-based; details: Homo sapiens;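 further: cell viability readout measuring growth inhibition of human HT55 cells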
Description: SANGER: Inhibition of human HT55 cell growth in a cell viability assay.

MRK-nu-1 = assay: cells; format: functional, cell-based, Homo sapiens; details: Homo sapiens, MRK-nu-1;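 further: cell viability assay measuring growth suppression of human MRK-nu-1 cells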
Description: SANGER: Inhibition of human MRK-nu-1 cell growth in a cell viability assay.

HN = assay: cells; format: functional, cell-based; details: Homo sapiens
Description: SANGER: Inhibition of human HN cell growth in a cell viability assay.

RT-112 = assay: cells; format: functional, cell-based; details: Homo sapiens
Description: SANGER: Inhibition of human RT-112 cell growth in a cell viability assay.

HCC1143 = assay: cells; format: functional, cell-based; details: Homo sapiens;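 further: growth inhibition of human HCC1143 cells, read out with a cell viability assay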
Description: SANGER: Inhibition of human HCC1143 cell growth in a cell viability assay.

TUR = assay: cells; format: functional, cell-based, Homo sapiens; details: Homo sapiens, TUR;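 further: growth inhibition of human TUR cells, read out with a cell viability assay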
Description: SANGER: Inhibition of human TUR cell growth in a cell viability assay.

Capan-2 = assay: cells; format: functional, cell-based; details: Homo sapiens;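 further: Capan-2 cell growth inhibition, read out with a viability assay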
Description: SANGER: Inhibition of human Capan-2 cell growth in a cell viability assay.

CHP-212 = assay: cells; format: functional, cell-based; details: Homo sapiens
Description: SANGER: Inhibition of human CHP-212 cell growth in a cell viability assay.

Question: With O=S(=O)(O)c1ccc2cc(/N=N/c3cc(S(=O)(=O)O)c4cccnc4c3O)ccc2c1 as the compound, how does the IC50 (SK-MEL-24) read?
Answer: > 16 µM

Question: What about the IC50 (MIA PaCa-2) of the same compound?
Answer: > 16 µM

Question: And the IC50 (COLO 205)?
Answer: > 16 µM

Question: And the IC50 (IPC-298)?
Answer: > 16 µM

Question: What about the IC50 (EW-24) of the same compound?
Answer: > 16 µM

Question: And the IC50 (RT-4)?
Answer: > 16 µM

Question: What about the IC50 (BHT-101) of the same compound?
Answer: > 16 µM

Question: And the IC50 (KMOE-2)?
Answer: > 16 µM

Question: And the IC50 (EC-GI-10)?
Answer: > 16 µM

Question: What about the IC50 (EVSA-T) of the same compound?
Answer: > 16 µM

Question: And the IC50 (HuO9)?
Answer: > 16 µM

Question: What about the IC50 (Calu-3) of the same compound?
Answer: > 16 µM

Question: What about the IC50 (DMS-53) of the same compound?
Answer: > 16 µM

Question: What about the IC50 (MDA-MB-175-VII) of the same compound?
Answer: > 16 µM

Question: What about the IC50 (SK-MEL-28) of the same compound?
Answer: > 16 µM

Question: And the IC50 (TCC-SUP)?
Answer: > 16 µM

Question: What about the IC50 (HLE) of the same compound?
Answer: > 16 µM

Question: And the IC50 (DK-MG)?
Answer: > 16 µM

Question: And the IC50 (23132-87)?
Answer: > 16 µM

Question: What about the IC50 (786-0) of the same compound?
Answer: 5.59 µM

Question: What about the IC50 (KU-19-19) of the same compound?
Answer: > 16 µM

Question: What about the IC50 (FTC-133) of the same compound?
Answer: > 16 µM

Question: And the IC50 (NCI-H345)?
Answer: > 16 µM

Question: And the IC50 (SW48)?
Answer: > 16 µM

Question: And the IC50 (HCT-15)?
Answer: 15.9 µM

Question: And the IC50 (Calu-1)?
Answer: > 16 µM

Question: What about the IC50 (HSC-3) of the same compound?
Answer: > 16 µM

Question: And the IC50 (C-4-II)?
Answer: > 16 µM

Question: What about the IC50 (CAL-27) of the same compound?
Answer: > 16 µM

Question: What about the IC50 (UO-31) of the same compound?
Answer: 13.6 µM

Question: What about the IC50 (T84) of the same compound?
Answer: > 16 µM

Question: What about the IC50 (COR-L23) of the same compound?
Answer: > 16 µM

Question: And the IC50 (DV-90)?
Answer: > 16 µM

Question: What about the IC50 (MeWo) of the same compound?
Answer: > 16 µM

Question: What about the IC50 (NCI-H838) of the same compound?
Answer: > 16 µM

Question: And the IC50 (NCI-H1734)?
Answer: > 16 µM

Question: And the IC50 (TE-15)?
Answer: > 16 µM

Question: What about the IC50 (CAL-39) of the same compound?
Answer: > 16 µM

Question: And the IC50 (EB2)?
Answer: > 16 µM

Question: And the IC50 (MG-63)?
Answer: > 16 µM

Question: And the IC50 (BC-3)?
Answer: > 16 µM

Question: And the IC50 (MDA-MB-468)?
Answer: > 16 µM

Question: What about the IC50 (HCC38) of the same compound?
Answer: > 16 µM

Question: What about the IC50 (HT55) of the same compound?
Answer: > 16 µM

Question: And the IC50 (MRK-nu-1)?
Answer: > 16 µM

Question: What about the IC50 (HN) of the same compound?
Answer: > 16 µM

Question: And the IC50 (RT-112)?
Answer: > 16 µM

Question: What about the IC50 (HCC1143) of the same compound?
Answer: > 16 µM

Question: What about the IC50 (TUR) of the same compound?
Answer: > 16 µM

Question: And the IC50 (Capan-2)?
Answer: > 16 µM

Question: What about the IC50 (CHP-212) of the same compound?
Answer: > 16 µM

Question: Which results are given for COC(=O)[C@H](CCSC)NC(=O)c1ccc(NC[C@@H](N)CS)cc1-c1ccccc1?
Answer: IC50 (SK-MEL-24): > 1.02 µM; IC50 (MIA PaCa-2): > 1.02 µM; IC50 (COLO 205): > 1.02 µM; IC50 (IPC-298): > 1.02 µM; IC50 (EW-24): > 1.02 µM; IC50 (RT-4): > 1.02 µM; IC50 (BHT-101): > 1.02 µM; IC50 (KMOE-2): > 1.02 µM; IC50 (EC-GI-10): > 1.02 µM; IC50 (EVSA-T): > 1.02 µM; IC50 (HuO9): > 1.02 µM; IC50 (Calu-3): > 1.02 µM; IC50 (DMS-53): > 1.02 µM; IC50 (MDA-MB-175-VII): > 1.02 µM; IC50 (SK-MEL-28): > 1.02 µM; IC50 (TCC-SUP): > 1.02 µM; IC50 (HLE): > 1.02 µM; IC50 (DK-MG): > 1.02 µM; IC50 (23132-87): > 1.02 µM; IC50 (786-0): > 1.02 µM; IC50 (KU-19-19): > 1.02 µM; IC50 (FTC-133): > 1.02 µM; IC50 (NCI-H345): > 1.02 µM; IC50 (SW48): > 1.02 µM; IC50 (HCT-15): > 1.02 µM; IC50 (Calu-1): > 1.02 µM; IC50 (HSC-3): > 1.02 µM; IC50 (C-4-II): > 1.02 µM; IC50 (CAL-27): > 1.02 µM; IC50 (UO-31): > 1.02 µM; IC50 (T84): > 1.02 µM; IC50 (COR-L23): > 1.02 µM; IC50 (DV-90): > 1.02 µM; IC50 (MeWo): > 1.02 µM; IC50 (NCI-H838): > 1.02 µM; IC50 (NCI-H1734): > 1.02 µM; IC50 (TE-15): > 1.02 µM; IC50 (CAL-39): > 1.02 µM; IC50 (EB2): > 1.02 µM; IC50 (MG-63): > 1.02 µM; IC50 (BC-3): > 1.02 µM; IC50 (MDA-MB-468): > 1.02 µM; IC50 (HCC38): > 1.02 µM; IC50 (HT55): > 1.02 µM; IC50 (MRK-nu-1): > 1.02 µM; IC50 (HN): > 1.02 µM; IC50 (RT-112): > 1.02 µM; IC50 (HCC1143): > 1.02 µM; IC50 (TUR): > 1.02 µM; IC50 (Capan-2): > 1.02 µM; IC50 (CHP-212): > 1.02 µM
